Data published in US10266537B2, “3-acetylenyl-pyrazole-pyrimidine derivative, and preparation method therefor and uses thereof” (Si Chuan University, priority 2015, dated 2019).
One block for each compound: values may come before it.

Assays:
[1] = system: transgenic FLK1-GFP fluorescent zebrafish; test: Anti-angiogenesis activity in transgenic zebrafish; assay type: in vivo; conditions: FLK1 transgenic zebrafish embryos; 10, 5 and 2.5 μg/mL; compared with the control group
Procedure: Angiogenesis inhibitory activity of the test compound is represented by the extent of inhibition vascular section between zebrafish with concentrations of 10 μg/mL, 5 μg/mL and 2.5 μg/mL. The positive control is Dasatinib, a drug in breast cancer clinical trials.
Zebrafish Embryo Access: The zebrafish used in this experiment is a vascular fluorescence transgenic zebrafish (FLK1: GFP). The breeding and breeding of zebrafish is based on Westerfield's method. In the day before egg collection, the male and female zebrafish were paired by the ratio 1:1 a. The next day, they natural mating and spawning at a temperature of about 28° C. and sufficient light. Sufficient zebrafish embryos were collected, washed and placed in embryonic culture medium and placed in a 28° C. incubator. The use of morphological and development criteria to identify survival at any time, dead embryos were white, should be promptly removed to prevent water quality deterioration. […]
Results observed: After zebrafish embryos fertilized 31 h, stripped shell eggs. The embryos were then placed on slides and fixed with 1.5% methylcellulose containing 1‰ of triacaine, followed by observing the count of Inter segmental vessels (ISVs) under fluorescence microscopy.

[2] = system: THP-1; test: Cell proliferation inhibition assay (MTT); assay type: cell-based; conditions: Homo sapiens, 72 hours, read-out: Proliferation inhibitory activity IC50
[3] = target: CHK2(I157T)(h) (Homo sapiens (Human), UniProt O96017, I157T); test: Kinase inhibition assay (KinaseProfiler, 33P-ATP); assay type: biochemical; conditions: read-out: The percentage of the remaining active protein
[4] = target: CLK4(h) (Homo sapiens (Human), UniProt Q9HAZ1); test: Kinase inhibition assay (KinaseProfiler, 33P-ATP); assay type: biochemical; conditions: read-out: The percentage of the remaining active protein
[5] = target: STK33(h) (Homo sapiens (Human), UniProt Q9BYT3); test: Kinase inhibition assay (KinaseProfiler, 33P-ATP); assay type: biochemical; conditions: read-out: The percentage of the remaining active protein
[6] = target: Arg (Homo sapiens, UniProt P42684); test: Kinase inhibition assay (KinaseProfiler, 33P-ATP)
[7] = target: TLK1(h) (Homo sapiens (Human), UniProt Q9UKI8); test: Kinase inhibition assay (KinaseProfiler, 33P-ATP); assay type: biochemical; conditions: read-out: The percentage of the remaining active protein
[8] = target: TAO1(h) (Homo sapiens (Human), UniProt Q7L7X3); test: Kinase inhibition assay (KinaseProfiler, 33P-ATP); assay type: biochemical; conditions: read-out: The percentage of the remaining active protein
[9] = target: CDK3/cyclinE(h) (Homo sapiens (Human), UniProt Q00526); test: Kinase inhibition assay (KinaseProfiler, 33P-ATP); assay type: biochemical; conditions: read-out: The percentage of the remaining active protein
[10] = target: Flt3(D835Y)(h) (Homo sapiens (Human), UniProt P36888, D835Y); test: Kinase inhibition assay (KinaseProfiler, 33P-ATP); assay type: biochemical; conditions: read-out: The percentage of the remaining active protein
[11] = target: MST2(h) (Homo sapiens (Human), UniProt Q13188); test: Kinase inhibition assay (KinaseProfiler, 33P-ATP); assay type: biochemical; conditions: read-out: The percentage of the remaining active protein
[12] = target: EphB1 (Homo sapiens (Human), UniProt P54762); test: Kinase inhibition assay (KinaseProfiler, 33P-ATP); assay type: biochemical; conditions: EphB1(h), read-out: The percentage of the remaining active protein
[13] = target: PKCζ(h) (Homo sapiens (Human), UniProt Q05513); test: Kinase inhibition assay (KinaseProfiler, 33P-ATP); assay type: biochemical; conditions: read-out: The percentage of the remaining active protein
[14] = target: CDK5/p35(h) (Homo sapiens (Human), UniProt Q00535); test: Kinase inhibition assay (KinaseProfiler, 33P-ATP); assay type: biochemical; conditions: read-out: The percentage of the remaining active protein
[15] = target: SAPK2a(T106M)(h) (Homo sapiens (Human), UniProt Q16539, T106M); test: Kinase inhibition assay (KinaseProfiler, 33P-ATP); assay type: biochemical; conditions: read-out: The percentage of the remaining active protein
[16] = target: PI3 Kinase (p110a(E545K)/p85a)(m) (Mus musculus (Mouse), UniProt P42337, E545K); test: Kinase inhibition assay (KinaseProfiler, 33P-ATP); assay type: biochemical; conditions: read-out: The percentage of the remaining active protein
[17] = target: CaMKI(h) (Homo sapiens (Human), UniProt Q14012); test: Kinase inhibition assay (KinaseProfiler, 33P-ATP); assay type: biochemical; conditions: read-out: The percentage of the remaining active protein
[18] = target: SAPK2b (Homo sapiens (Human), UniProt Q15759); test: Kinase inhibition assay (KinaseProfiler, 33P-ATP); assay type: biochemical
[19] = target: CLK1(h) (Homo sapiens (Human), UniProt P49759); test: Kinase inhibition assay (KinaseProfiler, 33P-ATP); assay type: biochemical; conditions: read-out: The percentage of the remaining active protein
[20] = target: Abl (M351T)(h) (Homo sapiens (Human), UniProt P00519, M351T); test: Kinase inhibition assay (KinaseProfiler, 33P-ATP); assay type: biochemical; conditions: read-out: The percentage of the remaining active protein
[21] = target: DRAK1(h) (Homo sapiens (Human), UniProt Q9UEE5); test: Kinase inhibition assay (KinaseProfiler, 33P-ATP); assay type: biochemical; conditions: read-out: The percentage of the remaining active protein
[22] = target: LTK(h) (Homo sapiens (Human), UniProt P29376); test: Kinase inhibition assay (KinaseProfiler, 33P-ATP); assay type: biochemical; conditions: read-out: The percentage of the remaining active protein
[23] = target: cKit(V654A)(h) (Homo sapiens (Human), UniProt P10721, V654A); test: Kinase inhibition assay (KinaseProfiler, 33P-ATP); assay type: biochemical; conditions: read-out: The percentage of the remaining active protein
[24] = target: ATM(h) (Homo sapiens (Human), UniProt Q13315); test: Kinase inhibition assay (KinaseProfiler, 33P-ATP); assay type: biochemical; conditions: read-out: The percentage of the remaining active protein
[25] = target: MAPKAP-K3(h) (Homo sapiens (Human), UniProt Q16644); test: Kinase inhibition assay (KinaseProfiler, 33P-ATP); assay type: biochemical; conditions: read-out: The percentage of the remaining active protein
[26] = target: Abl(m) (Mus musculus (Mouse), UniProt P00520); test: Kinase inhibition assay (KinaseProfiler, 33P-ATP); assay type: biochemical; conditions: read-out: The percentage of the remaining active protein
[27] = target: PKG1β(h) (Homo sapiens (Human), UniProt Q13976); test: Kinase inhibition assay (KinaseProfiler, 33P-ATP); assay type: biochemical; conditions: read-out: The percentage of the remaining active protein
[28] = target: HIPK1(h) (Homo sapiens (Human), UniProt Q86Z02); test: Kinase inhibition assay (KinaseProfiler, 33P-ATP); assay type: biochemical; conditions: read-out: The percentage of the remaining active protein

Chain of SAPK2b (Q15759 whole entry): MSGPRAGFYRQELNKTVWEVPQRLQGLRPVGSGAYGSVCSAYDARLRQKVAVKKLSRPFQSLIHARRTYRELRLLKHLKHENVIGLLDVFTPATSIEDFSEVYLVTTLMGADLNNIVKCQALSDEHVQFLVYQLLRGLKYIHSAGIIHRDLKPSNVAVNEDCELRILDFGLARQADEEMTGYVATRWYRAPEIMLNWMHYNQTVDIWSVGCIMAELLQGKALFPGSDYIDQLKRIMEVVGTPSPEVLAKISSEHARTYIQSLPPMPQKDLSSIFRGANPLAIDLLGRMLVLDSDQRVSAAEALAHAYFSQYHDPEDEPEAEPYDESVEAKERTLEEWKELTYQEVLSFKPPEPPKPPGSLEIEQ
Chain of Arg (P42684 2-1182 limits assumed): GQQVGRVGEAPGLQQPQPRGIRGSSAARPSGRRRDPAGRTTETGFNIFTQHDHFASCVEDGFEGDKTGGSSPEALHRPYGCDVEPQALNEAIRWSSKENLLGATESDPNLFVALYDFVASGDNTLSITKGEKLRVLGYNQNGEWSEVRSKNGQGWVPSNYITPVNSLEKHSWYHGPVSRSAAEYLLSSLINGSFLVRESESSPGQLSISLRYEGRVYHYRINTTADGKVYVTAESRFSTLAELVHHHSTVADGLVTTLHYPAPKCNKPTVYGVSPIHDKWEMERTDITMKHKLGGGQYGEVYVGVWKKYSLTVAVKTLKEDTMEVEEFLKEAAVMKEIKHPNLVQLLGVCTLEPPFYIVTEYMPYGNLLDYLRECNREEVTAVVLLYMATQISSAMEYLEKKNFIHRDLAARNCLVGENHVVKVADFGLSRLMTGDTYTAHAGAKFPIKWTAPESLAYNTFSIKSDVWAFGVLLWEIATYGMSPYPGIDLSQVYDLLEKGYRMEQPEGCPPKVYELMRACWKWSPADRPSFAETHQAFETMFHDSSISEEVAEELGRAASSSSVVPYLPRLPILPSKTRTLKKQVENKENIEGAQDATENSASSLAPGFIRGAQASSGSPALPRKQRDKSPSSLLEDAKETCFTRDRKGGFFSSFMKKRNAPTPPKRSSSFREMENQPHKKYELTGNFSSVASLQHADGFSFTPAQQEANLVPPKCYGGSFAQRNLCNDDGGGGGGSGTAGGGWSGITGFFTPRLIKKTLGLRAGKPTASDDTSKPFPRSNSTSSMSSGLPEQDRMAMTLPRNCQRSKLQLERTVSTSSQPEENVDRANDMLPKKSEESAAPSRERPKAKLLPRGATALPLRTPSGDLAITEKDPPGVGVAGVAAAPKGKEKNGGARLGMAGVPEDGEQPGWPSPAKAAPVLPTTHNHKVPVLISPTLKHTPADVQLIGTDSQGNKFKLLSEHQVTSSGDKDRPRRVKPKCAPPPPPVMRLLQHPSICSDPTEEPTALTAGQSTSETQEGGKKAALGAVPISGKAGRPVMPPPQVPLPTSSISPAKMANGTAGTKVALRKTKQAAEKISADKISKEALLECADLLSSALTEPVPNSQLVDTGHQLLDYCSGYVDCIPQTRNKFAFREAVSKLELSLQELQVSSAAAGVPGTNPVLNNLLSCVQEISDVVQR
Chain of PI3 Kinase (p110a(E545K)/p85a)(m) (P42337 whole entry E545K): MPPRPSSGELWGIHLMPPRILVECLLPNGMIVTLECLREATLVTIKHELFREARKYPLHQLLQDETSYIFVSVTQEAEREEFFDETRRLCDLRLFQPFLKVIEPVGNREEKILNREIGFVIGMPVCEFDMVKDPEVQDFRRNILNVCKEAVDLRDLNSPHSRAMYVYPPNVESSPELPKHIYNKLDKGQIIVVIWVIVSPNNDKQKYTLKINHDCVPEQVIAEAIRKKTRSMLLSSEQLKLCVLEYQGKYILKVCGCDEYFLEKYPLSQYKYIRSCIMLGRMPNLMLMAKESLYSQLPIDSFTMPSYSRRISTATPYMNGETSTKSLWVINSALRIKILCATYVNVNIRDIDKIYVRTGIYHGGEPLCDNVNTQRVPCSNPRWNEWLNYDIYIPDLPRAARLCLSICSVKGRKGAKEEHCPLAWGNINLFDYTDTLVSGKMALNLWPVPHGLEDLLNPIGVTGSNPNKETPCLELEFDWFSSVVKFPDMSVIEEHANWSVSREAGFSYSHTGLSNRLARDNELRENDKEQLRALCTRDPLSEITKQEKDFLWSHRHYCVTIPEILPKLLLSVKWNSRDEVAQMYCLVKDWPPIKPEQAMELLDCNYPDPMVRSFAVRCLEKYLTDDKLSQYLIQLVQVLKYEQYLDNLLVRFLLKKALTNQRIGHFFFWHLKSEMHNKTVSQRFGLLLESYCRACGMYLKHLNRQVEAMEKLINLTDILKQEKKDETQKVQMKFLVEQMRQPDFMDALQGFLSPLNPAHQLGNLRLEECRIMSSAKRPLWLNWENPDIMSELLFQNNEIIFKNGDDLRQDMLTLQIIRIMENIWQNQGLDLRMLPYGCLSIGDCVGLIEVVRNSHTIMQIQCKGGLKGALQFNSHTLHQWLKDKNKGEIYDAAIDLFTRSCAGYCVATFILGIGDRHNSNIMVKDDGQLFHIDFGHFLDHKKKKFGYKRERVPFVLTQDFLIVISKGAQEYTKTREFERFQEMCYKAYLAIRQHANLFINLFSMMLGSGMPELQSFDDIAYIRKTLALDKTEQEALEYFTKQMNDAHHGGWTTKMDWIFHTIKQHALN
Chain of PI3 Kinase (p110a(E545K)/p85a)(m) (P26450 whole entry partner): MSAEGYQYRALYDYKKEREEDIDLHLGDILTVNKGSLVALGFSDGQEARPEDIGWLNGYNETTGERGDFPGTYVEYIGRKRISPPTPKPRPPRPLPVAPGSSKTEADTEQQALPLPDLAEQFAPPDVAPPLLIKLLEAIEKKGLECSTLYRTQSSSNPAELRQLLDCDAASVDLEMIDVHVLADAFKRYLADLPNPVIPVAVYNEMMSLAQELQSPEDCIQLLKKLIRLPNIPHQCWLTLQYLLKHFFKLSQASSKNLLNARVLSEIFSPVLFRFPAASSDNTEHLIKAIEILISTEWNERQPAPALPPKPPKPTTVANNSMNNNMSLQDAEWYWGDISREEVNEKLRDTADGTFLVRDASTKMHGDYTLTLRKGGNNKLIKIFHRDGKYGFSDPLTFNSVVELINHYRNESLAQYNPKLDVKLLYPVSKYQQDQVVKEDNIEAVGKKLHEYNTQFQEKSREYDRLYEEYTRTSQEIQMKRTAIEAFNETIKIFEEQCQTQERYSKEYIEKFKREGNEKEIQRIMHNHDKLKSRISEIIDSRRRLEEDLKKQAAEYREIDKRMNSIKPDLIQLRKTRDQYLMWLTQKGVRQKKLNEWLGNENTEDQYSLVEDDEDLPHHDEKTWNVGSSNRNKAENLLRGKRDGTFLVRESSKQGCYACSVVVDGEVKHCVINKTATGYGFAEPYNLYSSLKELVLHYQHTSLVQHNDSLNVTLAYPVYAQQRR
Chain of LTK(h) (P29376 17-864): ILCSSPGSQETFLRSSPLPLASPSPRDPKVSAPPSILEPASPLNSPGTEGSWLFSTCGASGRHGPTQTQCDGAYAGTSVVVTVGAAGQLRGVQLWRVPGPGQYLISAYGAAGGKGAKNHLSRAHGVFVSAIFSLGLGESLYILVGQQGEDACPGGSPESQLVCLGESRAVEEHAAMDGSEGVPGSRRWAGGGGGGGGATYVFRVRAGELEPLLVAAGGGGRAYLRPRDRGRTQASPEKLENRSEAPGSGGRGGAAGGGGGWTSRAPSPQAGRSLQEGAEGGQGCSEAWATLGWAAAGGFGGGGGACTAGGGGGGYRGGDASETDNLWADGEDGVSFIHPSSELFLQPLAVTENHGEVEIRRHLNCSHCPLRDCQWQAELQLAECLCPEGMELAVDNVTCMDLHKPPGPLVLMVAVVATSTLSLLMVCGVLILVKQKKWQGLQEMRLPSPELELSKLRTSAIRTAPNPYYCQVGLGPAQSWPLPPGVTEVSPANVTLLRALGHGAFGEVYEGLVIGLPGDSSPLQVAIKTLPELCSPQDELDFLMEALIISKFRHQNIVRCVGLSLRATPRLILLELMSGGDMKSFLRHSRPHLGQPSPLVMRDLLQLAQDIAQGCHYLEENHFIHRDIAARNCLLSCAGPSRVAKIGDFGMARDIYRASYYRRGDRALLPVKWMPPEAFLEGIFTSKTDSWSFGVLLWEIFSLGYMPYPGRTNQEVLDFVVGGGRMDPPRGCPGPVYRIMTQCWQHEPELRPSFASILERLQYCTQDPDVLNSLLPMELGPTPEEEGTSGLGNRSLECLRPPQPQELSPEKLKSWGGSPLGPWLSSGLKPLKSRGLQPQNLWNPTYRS
Chain of CHK2(I157T)(h) (O96017 whole entry I157T): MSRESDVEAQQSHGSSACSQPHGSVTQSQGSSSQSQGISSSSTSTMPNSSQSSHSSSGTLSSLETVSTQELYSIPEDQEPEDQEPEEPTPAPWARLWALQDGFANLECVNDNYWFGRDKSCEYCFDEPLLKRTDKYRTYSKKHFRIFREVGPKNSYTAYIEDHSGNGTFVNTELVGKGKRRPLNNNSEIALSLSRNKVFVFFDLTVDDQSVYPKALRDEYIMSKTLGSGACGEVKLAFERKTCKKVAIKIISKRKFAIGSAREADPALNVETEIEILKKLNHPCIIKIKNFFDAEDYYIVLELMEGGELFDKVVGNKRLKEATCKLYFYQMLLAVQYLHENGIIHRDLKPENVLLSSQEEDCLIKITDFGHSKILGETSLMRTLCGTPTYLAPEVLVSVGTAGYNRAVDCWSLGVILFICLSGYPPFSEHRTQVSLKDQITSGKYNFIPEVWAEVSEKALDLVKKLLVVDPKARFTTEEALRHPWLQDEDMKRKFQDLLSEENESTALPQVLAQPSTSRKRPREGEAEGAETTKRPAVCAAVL

IC50 [2]: 7380 nM
SMILES: Cc1ccc(NC(=O)c2cccc(C(F)(F)F)c2)cc1C#Cc1nn(C2CCN(C)CC2)c2ncnc(N)c12 [Compound 31]
inhibition of angiogenesis (inter segmental vessels) [1]: inhibit the angiogenesis of zebrafish significantly

remaining activity at 10 µM [3]: 103%
remaining activity at 10 µM [4]: 58%
remaining activity at 10 µM [5]: 109%
IC50 ([6]; Arg, ATP at Km): 4 nM
remaining activity at 10 µM ([6]; read-out: The percentage of the remaining active protein): 0%
remaining activity at 10 µM [7]: 95%
remaining activity at 10 µM [8]: 18%
remaining activity at 10 µM [9]: 93%
remaining activity at 10 µM [10]: 118%
remaining activity at 10 µM [11]: 63%
remaining activity at 10 µM [12]: -1%
remaining activity at 10 µM [13]: 99%
remaining activity at 10 µM [14]: 127%
remaining activity at 10 µM [15]: 88%
remaining activity at 10 µM [16]: 87%
remaining activity at 10 µM [17]: 62%
remaining activity at 10 µM ([18]; SAPK2b(h), 10 μM, read-out: The percentage of the remaining active protein): -2%
IC50 ([18]; SAPK2b, ATP at Km): 84 nM
remaining activity at 10 µM [19]: 64%
remaining activity at 10 µM [20]: 0%
remaining activity at 10 µM [21]: 140%
remaining activity at 10 µM [22]: 73%
remaining activity at 10 µM [23]: 7%
remaining activity at 10 µM [24]: 102%
remaining activity at 10 µM [25]: 96%
remaining activity at 10 µM [26]: -2%
remaining activity at 10 µM [27]: 115%
remaining activity at 10 µM [28]: 107%
SMILES: Cc1ccc(NC(=O)c2ccc(C)c(C(F)(F)F)c2)cc1C#Cc1nn([C@H]2CC[C@H](O)CC2)c2ncnc(N)c12 [Compound 93]
